Values of other authors in patent US20260069708A1 (priority 2022, published 2026).

Settings: reportedly

COc1cccc2c1C(=O)c1c(O)c3c(c(O)c1C2=O)C[C@@](O)(C(=O)CO)C[C@@H]3O[C@H]1C[C@H](N)[C@H](O)[C@H](C)O1 [Dox, doxorubicin]
fold lower IC50 than irinotecan: 10-100 fold
